Source: ChEMBL document CHEMBL3885861, “Open TG-GATES”

Organism: Rattus norvegicus
Assay: Open TG-GATES - Regimen: Daily Repeat
Format: toxicity, organism-based, Sprague-Dawley
Parameters: regimen Daily Repeat, gender Male, age 6 weeks
Settings: in vivo, po, 1000 mg/kg, route gavage, dose level High; for APTT / Bas / Eos / Fbg / Hb / Ht / Lym / MCH / MCHC / MCV / Mono / Neu / PT / Plat / RBC / Ret / WBC: tissue Blood; for KIDNEY_L / KIDNEY_R / KIDNEY_TOTAL: tissue Kidney; for LIVER: tissue Liver; for ALP / AST / BUN / CRE / Ca / Cl / DBIL / GLC / IP / K / LDH / Na / PL / RALB / TBIL / TC / TG / TP / gamma-GTP: tissue Plasma

COc1ccc2[nH]c([S+]([O-])Cc3ncc(C)c(OC)c3C)nc2c1 (centres undefined) [OMEPRAZOLE]
TERMINAL_BW (72 h, time 3 day): 219.1 g
APTT (72 h, time 3 day): 19.8 s
Bas (72 h, time 3 day): 0%
Eos (72 h, time 3 day): 0.6%
Fbg (72 h, time 3 day): 196 mg/dL
Hb (72 h, time 3 day): 13.8 g/dL
Ht (72 h, time 3 day): 39.6%
Lym (72 h, time 3 day): 83.2%
MCH (72 h, time 3 day): 20.8 pg
MCHC (72 h, time 3 day): 34.8%
MCV (72 h, time 3 day): 59.9 fL
Mono (72 h, time 3 day): 3.8%
Neu (72 h, time 3 day): 11.8%
PT (72 h, time 3 day): 12.1 s
Plat (72 h, time 3 day): 132.7 x10_4/uL
RBC (72 h, time 3 day): 662.2 x10_4/ul
Ret (72 h, time 3 day): 1.7%
WBC (72 h, time 3 day): 99.5 x10_2/uL
KIDNEY_L (72 h, time 3 day): 1 g
KIDNEY_R (72 h, time 3 day): 1 g
KIDNEY_TOTAL (72 h, time 3 day): 1.9 g
LIVER (72 h, time 3 day): 15.4 g
ALP (72 h, time 3 day): 629 IU/L
AST (72 h, time 3 day): 46 IU/L
BUN (72 h, time 3 day): 17.6 mg/dL
CRE (72 h, time 3 day): 0.4 mg/dL
Ca (72 h, time 3 day): 10 mg/dL
Cl (72 h, time 3 day): 101.8 meq/L
DBIL (72 h, time 3 day): 0.094 mg/dL
GLC (72 h, time 3 day): 195 mg/dL
IP (72 h, time 3 day): 7.5 mg/dL
K (72 h, time 3 day): 3.8 meq/L
LDH (72 h, time 3 day): 200 IU/L
Na (72 h, time 3 day): 140.2 meq/L
PL (72 h, time 3 day): 207.4 mg/dL
RALB (72 h, time 3 day): 3.3 g/dL
TBIL (72 h, time 3 day): 0.2 mg/dL
TC (72 h, time 3 day): 120.8 mg/dL
TG (72 h, time 3 day): 157.2 mg/dL
TP (72 h, time 3 day): 5.6 g/dL
gamma-GTP (72 h, time 3 day): 2 IU/L
TERMINAL_BW ([…], time 7 day): 262 g
TERMINAL_BW ([…], time 14 day): 300.1 g
TERMINAL_BW ([…], time 28 day): 351.8 g
APTT ([…], time 7 day): 21.9 s
Bas ([…], time 7 day): 0%
Eos ([…], time 7 day): 0.6%
Fbg ([…], time 7 day): 215.2 mg/dL
Hb ([…], time 7 day): 12 g/dL
Ht ([…], time 7 day): 34.9%
Lym ([…], time 7 day): 80.4%
MCH ([…], time 7 day): 20.3 pg
MCHC ([…], time 7 day): 34.4%
MCV ([…], time 7 day): 59 fL
Mono ([…], time 7 day): 3.8%
Neu ([…], time 7 day): 14.6%
PT ([…], time 7 day): 11.9 s
Plat ([…], time 7 day): 171.4 x10_4/uL
RBC ([…], time 7 day): 591.8 x10_4/ul
Ret ([…], time 7 day): 4.3%
WBC ([…], time 7 day): 118.3 x10_2/uL
APTT ([…], time 14 day): 24.5 s
Bas ([…], time 14 day): 0%
Eos ([…], time 14 day): 0.6%
Fbg ([…], time 14 day): 203.8 mg/dL
Hb ([…], time 14 day): 11.7 g/dL
Ht ([…], time 14 day): 34.1%
Lym ([…], time 14 day): 82.2%
MCH ([…], time 14 day): 18.6 pg
MCHC ([…], time 14 day): 34.2%
MCV ([…], time 14 day): 54.3 fL
Mono ([…], time 14 day): 2.6%
Neu ([…], time 14 day): 13%
PT ([…], time 14 day): 12.7 s
Plat ([…], time 14 day): 139.7 x10_4/uL
RBC ([…], time 14 day): 628.4 x10_4/ul
Ret ([…], time 14 day): 5%
WBC ([…], time 14 day): 131 x10_2/uL
APTT ([…], time 28 day): 23.8 s
Bas ([…], time 28 day): 0%
Eos ([…], time 28 day): 0.6%
Fbg ([…], time 28 day): 196.8 mg/dL
Hb ([…], time 28 day): 12 g/dL
Ht ([…], time 28 day): 35.7%
Lym ([…], time 28 day): 78.6%
MCH ([…], time 28 day): 17.3 pg
MCHC ([…], time 28 day): 33.7%
MCV ([…], time 28 day): 51.3 fL
Mono ([…], time 28 day): 2.2%
Neu ([…], time 28 day): 17.6%
PT ([…], time 28 day): 12.3 s
Plat ([…], time 28 day): 124 x10_4/uL
RBC ([…], time 28 day): 697.2 x10_4/ul
Ret ([…], time 28 day): 4%
WBC ([…], time 28 day): 152.6 x10_2/uL
KIDNEY_L ([…], time 7 day): 1.1 g
KIDNEY_R ([…], time 7 day): 1.1 g
KIDNEY_TOTAL ([…], time 7 day): 2.1 g
KIDNEY_L ([…], time 14 day): 1.2 g
KIDNEY_R ([…], time 14 day): 1.2 g
KIDNEY_TOTAL ([…], time 14 day): 2.3 g
KIDNEY_L ([…], time 28 day): 1.2 g
KIDNEY_R ([…], time 28 day): 1.2 g
KIDNEY_TOTAL ([…], time 28 day): 2.5 g
LIVER ([…], time 7 day): 18.1 g
LIVER ([…], time 14 day): 21.2 g
LIVER ([…], time 28 day): 21.4 g
ALP ([…], time 7 day): 661.8 IU/L
AST ([…], time 7 day): 59.2 IU/L
BUN ([…], time 7 day): 16.6 mg/dL
CRE ([…], time 7 day): 0.4 mg/dL
Ca ([…], time 7 day): 10.7 mg/dL
Cl ([…], time 7 day): 101.4 meq/L
DBIL ([…], time 7 day): 0.064 mg/dL
GLC ([…], time 7 day): 187.4 mg/dL
IP ([…], time 7 day): 8.2 mg/dL
K ([…], time 7 day): 3.9 meq/L
LDH ([…], time 7 day): 242.4 IU/L
Na ([…], time 7 day): 140.6 meq/L
PL ([…], time 7 day): 200.8 mg/dL
RALB ([…], time 7 day): 3.5 g/dL
TBIL ([…], time 7 day): 0.1 mg/dL
TC ([…], time 7 day): 117.6 mg/dL
TG ([…], time 7 day): 62.4 mg/dL
TP ([…], time 7 day): 6.2 g/dL
gamma-GTP ([…], time 7 day): 2.6 IU/L
ALP ([…], time 14 day): 599 IU/L
AST ([…], time 14 day): 52.6 IU/L
BUN ([…], time 14 day): 18.2 mg/dL
CRE ([…], time 14 day): 0.5 mg/dL
Ca ([…], time 14 day): 10.8 mg/dL
Cl ([…], time 14 day): 102.8 meq/L
DBIL ([…], time 14 day): 0.072 mg/dL
GLC ([…], time 14 day): 191.4 mg/dL
IP ([…], time 14 day): 7.8 mg/dL
K ([…], time 14 day): 3.9 meq/L
LDH ([…], time 14 day): 195.8 IU/L
Na ([…], time 14 day): 141.2 meq/L
PL ([…], time 14 day): 206.6 mg/dL
RALB ([…], time 14 day): 3.6 g/dL
TBIL ([…], time 14 day): 0.1 mg/dL
TC ([…], time 14 day): 120.8 mg/dL
TG ([…], time 14 day): 77.8 mg/dL
TP ([…], time 14 day): 6.3 g/dL
gamma-GTP ([…], time 14 day): 2.2 IU/L
ALP ([…], time 28 day): 458.4 IU/L
AST ([…], time 28 day): 50.6 IU/L
BUN ([…], time 28 day): 18.2 mg/dL
CRE ([…], time 28 day): 0.5 mg/dL
Ca ([…], time 28 day): 10.7 mg/dL
Cl ([…], time 28 day): 102.2 meq/L
DBIL ([…], time 28 day): 0.07 mg/dL
GLC ([…], time 28 day): 190.8 mg/dL
IP ([…], time 28 day): 6.9 mg/dL
K ([…], time 28 day): 3.9 meq/L
LDH ([…], time 28 day): 119.2 IU/L
Na ([…], time 28 day): 142.6 meq/L
PL ([…], time 28 day): 185.8 mg/dL
RALB ([…], time 28 day): 3.8 g/dL
TBIL ([…], time 28 day): 0.1 mg/dL
TC ([…], time 28 day): 102.4 mg/dL
TG ([…], time 28 day): 49 mg/dL
TP ([…], time 28 day): 6.6 g/dL
gamma-GTP ([…], time 28 day): 2.4 IU/L
